“And” between values parts separate entries of the source, which are not always exact repeats. Equal values may be shown once. Read-outs that look alike come from different tables or passages of the source.
How the values were obtained:
[1] = cited from earlier work
[2] = more active; cited from earlier work
[3] = rat, in vivo
Source text: An automated blood sampler (Culex ABS, Bioanalytical Systems, Inc. West Lafayette, IN) was used for rat blood sample collection.
(§1) Three samples were collected during each phase of absorption, distribution, or elimination for full PK analysis on the first and last dosing days following intravenous bonus injection. Additionally, trough levels (pre-dose) samples were collected in between each dose to follow drug accumulation and a series PK approach (18 samples per animal) was used. Thus, each animal was dosed and plasma samples were obtained for up to three days. A total of 18 (0, 5, 15, 30, 45 min, 1, 2, 3, 6, 24.25, 48.167, 48.25, 48.5, 48.75, 49, 50, 51, and 54 h) samples were collected into cooled vials. 50 μL of blood per sample was collected pre-dosing and after dosing and 100 μL per sample was taken from 0.08 h to 56 h after dosing. During collection, blood samples were added into the vials, which contained dried heparin (50 units) on the bottom of each vial. Thus, a total blood volume of 1.75 mL was obtained from each rat during the three day treatment period (0.85 mL of blood on day 0, 0.1 mL on day 1, and 0.9 mL on day 2), which is 9.3% of the animals total blood volume. Subjects for replicated crossover design were followed FDA recommendation [22] with a 2 week wash out period. During wash-out period, if the catheter was blocked up by any reasons the jugular vein tubes were infused or replaced.
The area under the curve (AUC) was determined by the linear trapezoidal rule with extrapolation to infinity based on the concentration of the last time point divided by the terminal rate constant.

[4] = Pharmacokinetics of AS and DHA in rat plasma after single and multiple intravenous AS injections (automated blood sampler, LC-MS/MS);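 as to all read-outs here: blood drawn through a jugular vein catheter by an automated sampling system, plasma drug levels measured by LC-MS/MS with positive electrospray ionization against standard curves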; assay type: in vivo, Sprague-Dawley rats; conditions: for AUC0–3 h / Cmin / Degree of Fluctuation = 100% × (Cmax − Cmin)/Cav / Cmax / MRT / Tmax / AUC(0-t) / AUC / half-life / average plasma concentration over 0–72 h (Cav = AUC0–72 h/72): 20 mg/kg i.v. daily for 3 days, male rats; for Cmax / MRT / Tmax / AUC(0-t) / AUC / half-life / average plasma concentration over 0–72 h (Cav = AUC0–72 h/72): male, Sprague-Dawley, rat, plasma, iv, 20 mg/kg; for AUC(0-t): read-out: AUC0–3 h; for AUC: read-out: AUCinfininty
Procedure: The Culex ABS is a blood sampling and metabolism monitoring machine, which is controlled by its own internal computer. We were successful in evaluating PK for long-term periods by using this system. After jugular vein cannulation, study animals were individually placed in the system, which allowed for a micro-pump to infuse heparinized-saline (10 unit heparin/mL saline) at a rate of 1-2 μL/min to prevent coagulation within the catheter. Culex samples were obtained with precise blood volumes from the study animals and the total volume taken was less than 6% per day and 14% during the entire study period. Blood samples were maintained at 3 °C using Culex's temperature-controlled fractional collector. Plasma was separated from the blood samples and processed for drug extraction.
as §1
The samples were vortexed vigorously (set at 10 or max setting) for 8–10 sec followed by a 10,000 × g centrifugation at 4 °C for 10 min. Aliquots (approximately 250 μL ea) of the undisturbed supernatants were transferred into a 96-well plate for LC-MS/MS analyses. […] Drugs were chromatographically separated using an acetonitrile/ammonium acetate gradient through a Waters XTerra C18 column (2.1 × 50 mm, 3.5 μm particle size) and corresponding pre-column. Quantification was done using the most abundant daughter ions following positive electrospray ionization. Chromatograms were analyzed using Xcalibur mass spectrometry software. The responses-concentrations standard curves were fitted and weighted.
The area under the curve (AUC) was determined by the linear trapezoidal rule with extrapolation to infinity based on the concentration of the last time point divided by the terminal rate constant. The bioequivalence (BE) evaluation of the two formulations were analyzed by using BE software (WinNonlin 5.2, Pharsight Co. Mountain View, CA. USA) in rats for a NDA application.

[5] = male, Sprague-Dawley, iv, 20 mg/kg, 1 day
[6] = Chinese formulation (AS/NaHCO3), Period 1, Day 3
[7] = Chinese formulation (AS/NaHCO3), Period 2, Day 3
[8] = WRAIR formulation (AS/0.3M PBS Buffer), Period 1, Day 3
[9] = WRAIR formulation (AS/0.3M PBS Buffer), Period 2, Day 3
[10] = Chinese formulation (AS/NaHCO3), Period 1, Day 1
[11] = Chinese formulation (AS/NaHCO3), Period 2, Day 1
[12] = WRAIR formulation (AS/0.3M PBS Buffer), Period 1, Day 1
[13] = WRAIR formulation (AS/0.3M PBS Buffer), Period 2, Day 1

C[C@H]1[C@@H](O)O[C@@H]2O[C@@]3(C)CC[C@H]4[C@H](C)CC[C@@H]1[C@@]24OO3 [DHA, dihydroartemisinin]
elimination half-life (t1/2) [1]: 40 to 60 min | activity compared with other artemisinin derivatives [2]: 3-5 fold | 90% CI for the difference between the two i.v. formulations, AUC1–3D ([3]; Sprague-Dawley, iv): 79.11–120.89% | 90% CI of the difference between the two intravenous formulations, AUCD3 ([3]; Sprague-Dawley, iv, 3 day): 71.32–128.67% | 90% CI for T/R, Lower, AUCD1 [3, 5]: 82.04% | 90% CI for T/R, Upper, AUCD1 [3, 5]: 117.96% | BE (bioequivalence), AUCD1 [3]: Yes | BE (bioequivalence), Cmax D1 [3]: No | 90% CI between the two intravenous formulations, AUC0–3 h ([3]; iv): 82.04–117.96% | AUC0–3 h [4, 6]: 990.8 ± 224.7 ng·h/mL | Cmin [4, 6]: 2.96 ± 2.31 ng/mL | Degree of Fluctuation = 100% × (Cmax − Cmin)/Cav [4, 6]: 860% and 860.1 ± 121.1% | AUC0–3 h [4, 7]: 905.2 ± 188.7 ng·h/mL | Cmin [4, 7]: 4.52 ± 2.25 ng/mL | Degree of Fluctuation = 100% × (Cmax − Cmin)/Cav [4, 7]: 844 ± 64% | time at which Cmax was measured ([4]; Chinese formulation, 20 mg/kg i.v., rats, period 1, day 1): 15 min | time at which Cmax was measured ([4]; Chinese formulation, 20 mg/kg i.v., rats, period 2, day 1): 15 min | time at which Cmax was observed ([4]; Chinese formulation, 20 mg/kg i.v., rats, period 2, day 3): 15 min | Cmin [4, 8]: 6.59 ± 3.06 ng/mL | Cmin [4, 9]: 5.38 ± 3.77 ng/mL | time at which Cmax was measured ([4]; WRAIR formulation, 20 mg/kg i.v., rats, period 1, day 1): 15 min | Cmax [4, 10]: 3360 ng/mL | MRT [4, 10]: 22.8 ± 7.8 min | Tmax [4, 10]: 15 min | AUC(0-t) [4, 10]: 1570 ng·h/mL | AUC [4, 10]: 1570 ± 350 ng·h/mL | half-life ([4]; Chinese formulation (AS/NaHCO3), Period 1, Day 1, read-out: t1/2 distribution (converted)): 7.2 ± 1.2 min | half-life ([4]; Chinese formulation (AS/NaHCO3), Period 1, Day 1, read-out: t1/2 elimination (converted)): 45 ± 6 min | Cmax [4, 6]: 2780 ng/mL | MRT [4, 6]: 21 ± 3.6 min | Tmax [4, 6]: 10.2 ± 5.4 min | average plasma concentration over 0–72 h (Cav = AUC0–72 h/72) [4, 6]: 330 ng·h/mL | AUC(0-t) [4, 6]: 991 ng·h/mL | AUC [4, 6]: 994 ± 225 ng·h/mL | half-life ([4]; Chinese formulation (AS/NaHCO3), Period 1, Day 3, read-out: t1/2 distribution (converted)): 5.4 ± 0.6 min | half-life ([4]; Chinese formulation (AS/NaHCO3), Period 1, Day 3, read-out: t1/2 elimination (converted)): 40.8 ± 9 min | Cmax [4, 11]: 2690 ng/mL | MRT [4, 11]: 27.6 ± 8.4 min | Tmax [4, 11]: 15 min | AUC(0-t) [4, 11]: 1220 ng·h/mL | AUC [4, 11]: 1230 ± 266 ng·h/mL | half-life ([4]; Chinese formulation (AS/NaHCO3), Period 2, Day 1, read-out: t1/2 distribution (converted)): 7.2 ± 1.2 min | half-life ([4]; Chinese formulation (AS/NaHCO3), Period 2, Day 1, read-out: t1/2 elimination (converted)): 43.8 ± 10.2 min | Cmax [4, 7]: 2450 ng/mL | MRT [4, 7]: 22.8 ± 1.2 min | Tmax [4, 7]: 15 min | AUC(0-t) [4, 7]: 905 ng·h/mL | AUC [4, 7]: 910 ± 188 ng·h/mL | half-life ([4]; Chinese formulation (AS/NaHCO3), Period 2, Day 3, read-out: t1/2 distribution (converted)): 4.8 ± 0.6 min | half-life ([4]; Chinese formulation (AS/NaHCO3), Period 2, Day 3, read-out: t1/2 elimination (converted)): 43.2 ± 7.2 min | Cmax [4, 12]: 3150 ng/mL | MRT [4, 12]: 23.4 ± 4.8 min | Tmax [4, 12]: 15 min | AUC(0-t) [4, 12]: 1460 ng·h/mL | AUC [4, 12]: 1460 ± 211 ng·h/mL | half-life ([4]; WRAIR formulation (AS/0.3M PBS Buffer), Period 1, Day 1, read-out: t1/2 distribution (converted)): 7.2 ± 0.6 min | half-life ([4]; WRAIR formulation (AS/0.3M PBS Buffer), Period 1, Day 1, read-out: t1/2 elimination (converted)): 58.8 ± 8.4 min | Cmax [4, 8]: 2810 ng/mL | MRT [4, 8]: 20.4 ± 6.6 min | Tmax [4, 8]: 15 min | average plasma concentration over 0–72 h (Cav = AUC0–72 h/72) [4, 8]: 367 ng·h/mL | AUC(0-t) [4, 8]: 1100 ng·h/mL | AUC [4, 8]: 1110 ± 174 ng·h/mL | half-life ([4]; WRAIR formulation (AS/0.3M PBS Buffer), Period 1, Day 3, read-out: t1/2 distribution (converted)): 5.4 ± 0.6 min | half-life ([4]; WRAIR formulation (AS/0.3M PBS Buffer), Period 1, Day 3, read-out: t1/2 elimination (converted)): 54 ± 7.2 min | Cmax [4, 13]: 3520 ng/mL | MRT [4, 13]: 24 ± 2.4 min | Tmax [4, 13]: 15 min | AUC(0-t) [4, 13]: 1510 ng·h/mL | AUC [4, 13]: 1510 ± 293 ng·h/mL | half-life ([4]; WRAIR formulation (AS/0.3M PBS Buffer), Period 2, Day 1, read-out: t1/2 distribution (converted)): 8.4 ± 0.6 min | half-life ([4]; WRAIR formulation (AS/0.3M PBS Buffer), Period 2, Day 1, read-out: t1/2 elimination (converted)): 54.6 ± 4.2 min | Cmax [4, 9]: 3120 ng/mL | MRT [4, 9]: 23.4 ± 1.8 min | Tmax [4, 9]: 15 min | AUC(0-t) [4, 9]: 1040 ng·h/mL | AUC [4, 9]: 1050 ± 160 ng·h/mL | half-life ([4]; WRAIR formulation (AS/0.3M PBS Buffer), Period 2, Day 3, read-out: t1/2 distribution (converted)): 5.4 ± 8.4 min | half-life ([4]; WRAIR formulation (AS/0.3M PBS Buffer), Period 2, Day 3, read-out: t1/2 elimination (converted)): 52.8 ± 8.4 min
